Measured values from US11858951B2, “Boronic acid derivatives” (Merck Patent GmbH, priority 2017, dated 2024).
Where two headings read alike, the source gives them in different places.

Tests used:
[1] = target: LMP7 (purified human immuno proteasome) (Homo sapiens, UniProt P28062); test: Determination of LMP7 activity (fluorescence intensity assay, Suc-LLVY-AMC); format: biochemical; settings: for Selectivity LMP7 vs Beta5: LMP7 versus Beta5, incubation for 20 minutes
Procedure: Biological Activity Determination of LMP7 Activity:
Measurement of LMP7 inhibition is performed in 384 well format based on fluorescence intensity assay.
(§1) Purified human immuno proteasome (0.25 nM) and serial diluted compounds in DMSO (range of concentrations from 30 μM to 15 pM) or controls are incubated for 20 minutes or 120 minutes (long incubation) at 25° C. in assay buffer containing 50 mM Tris pH 7.4, 0.03% SDS, 1 mM EDTA and 1% DMSO. The reaction is initiated by the addition of the fluorogenic peptide substrate, Suc-LLVY-AMC (Bachem 1-1395), at a concentration of 40 μM. After 60 minutes of incubation at 37° C., fluorescence intensity is measured at λex=350 nm and λem=450 nm with a fluorescence reader (Perkin Elmer Envision reader or equivalent).
(§2) Unless indicated otherwise the results are obtained after incubation for 20 minutes.

[2] = target: Beta5 (purified human constitutive proteasome) (Homo sapiens, UniProt P28074); test: Determination of Beta5 activity (fluorescence intensity assay, Suc-LLVY-AMC); format: biochemical
Procedure: Determination of Beta5 Activity:
Measurement of Beta5 inhibition is performed in 384 well format based on fluorescence intensity assay.
as §1, with “constitutive” for “immuno”, “(1.25” for “(0.25”
as §2

[3] = incubation for 20 minutes at 25° C., concentrations 30 μM to 15 pM, read-out: LMP7 IC50
[4] = incubation for 20 minutes at 25° C., concentrations 30 μM to 15 pM, read-out: Beta5 IC50

## Cc1cccc2c(C[C@H](NC(=O)[C@]34CC[C@H](O3)c3ccccc34)B(O)O)coc12 [compound 19, [(1R)-2-(7-methyl-1-benzofuran-3-yl)-1-{[(1R,8S)-11-oxatricyclo[6.2.1.0^2,7]undeca-2,4,6-trien-1-yl]formamido}ethyl]boronic acid]
[1]
  Selectivity LMP7 vs Beta5: +++++ (Selectivity ≥700)
[1]; [3]
  IC50: < 5e-08 M
[2]; [4]
  IC50: 5e-06 to 3e-05 M

## O=C(N[C@@H](Cc1coc2ccccc12)B(O)O)[C@H]1C2C(=O)N(C3CC3)C[C@]23C=C[C@H]1O3 (stereo partly drawn) [compound 17, [(1R)-2-(1-benzofuran-3-yl)-1-{[(1S,6S,7R)-3-cyclopropyl-4-oxo-10-oxa-3-azatricyclo[5.2.1.0^1,5]dec-8-en-6-yl]formamido}ethyl]boronic acid]
[1]
  Selectivity LMP7 vs Beta5: ++ (100 ≤ Selectivity < 300)
[1]; [3]
  IC50: < 5e-08 M
[2]; [4]
  IC50: 5e-06 to 3e-05 M

## O=C(N[C@@H](Cc1coc2c(Cl)cccc12)B(O)O)[C@@H]1C[C@H]2CC[C@@H]1O2 [Compound No. 13, [(1R)-2-(7-chloro-1-benzofuran-3-yl)-1-{[(1S,2R,4R)-7-oxabicyclo[2.2.1]heptan-2-yl]formamido}ethyl]boronic acid]
[1]
  Selectivity LMP7 vs Beta5: +++++ (Selectivity ≥700)
[1]; [3]
  IC50: < 5e-08 M
[2]; [4]
  IC50: 5e-07 to 5e-06 M

## C[C@]12CC[C@](C(=O)N[C@@H](C[C@@H]3COc4ccccc43)B(O)O)(O1)c1ccccc12 [compound 21, [(1R)-2-[(3S)-2,3-dihydro-1-benzofuran-3-yl]-1-{[(1S,8R)-8-methyl-11-oxatricyclo[6.2.1.0^2,7]undeca-2,4,6-trien-1-yl]formamido}ethyl]boronic acid]
[1]
  Selectivity LMP7 vs Beta5: +++++ (Selectivity ≥700)
[1]; [3]
  IC50: < 5e-08 M
[2]; [4]
  IC50: 5e-06 to 3e-05 M

## C[C@@]12CC[C@@](C(=O)N[C@@H](C[C@@H]3COc4ccccc43)B(O)O)(O1)c1ccccc12 [compound 23, [(1R)-2-[(3S)-2,3-dihydro-1-benzofuran-3-yl]-1-{[(1R,8S)-8-methyl-11-oxatricyclo[6.2.1.0^2,7]undeca-2,4,6-trien-1-yl]formamido}ethyl]boronic acid]
[1]
  Selectivity LMP7 vs Beta5: +++++ (Selectivity ≥700)
[1]; [3]
  IC50: < 5e-08 M
[2]; [4]
  IC50: 5e-06 to 3e-05 M

## O=C(N[C@@H](CC1CCCCC1)B(O)O)[C@@H]1C[C@H]2CC[C@@H]1O2 [compound 26, [(1R)-2-cyclohexyl-1-{[(1S,2R,4R)-7-oxabicyclo[2.2.1]heptan-2-yl]formamido}ethyl]boronic acid]
[1]; long incubation: 120 min at 25° C., read-out: LMP7 IC50 (M) (long)
  IC50: 5e-07 to 5e-06 M
[2]; long incubation: 120 min at 25° C., read-out: Beta5 IC50 (M) (long)
  IC50: > 3e-05 M

## Cc1ccc(C[C@H](NC(=O)[C@@H]2C[C@H]3CC[C@@H]2O3)B(O)O)c(C)c1 [compound 25, [(1R)-2-(2,4-dimethylphenyl)-1-{[(1S,2R,4R)-7-oxabicyclo[2.2.1]heptan-2-yl]formamido}ethyl]boronic acid]
[1]
  Selectivity LMP7 vs Beta5: ++ (100 ≤ Selectivity < 300)
[1]; [3]
  IC50: 5e-08 to 5e-07 M
[2]; [4]
  IC50: 5e-06 to 3e-05 M

## O=C(N[C@@H](Cc1ccsc1)B(O)O)[C@@H]1C[C@H]2CC[C@@H]1O2 [compound 3, [(1R)-1-{[(1S,2R,4R)-7-oxabicyclo[2.2.1]heptan-2-yl]formamido}-2-(thiophen-3-yl)ethyl]boronic acid]
[1]; [3]
  IC50: 5e-07 to 5e-06 M
[2]; [4]
  IC50: > 3e-05 M

## O=C(N[C@@H](C[C@@H]1COc2ccccc21)B(O)O)[C@H]1C[C@@H]2CC[C@H]1O2 [compound 2, [(1R)-2-[(3S)-2,3-dihydro-1-benzofuran-3-yl]-1-{[(1R,2S,4S)-7-oxabicyclo[2.2.1]heptan-2-yl]formamido}ethyl]boronic acid]
[1]
  Selectivity LMP7 vs Beta5: +++ (300 ≤ Selectivity < 500)
[1]; [3]
  IC50: 5e-08 to 5e-07 M
[2]; [4]
  IC50: 5e-06 to 3e-05 M

## O=C(N[C@@H](Cc1coc2ccccc12)B(O)O)C1C[C@H]2O[C@@H]1c1ccccc12 (stereo partly drawn) [compound 22, [(1R)-2-(1-benzofuran-3-yl)-1-{[(1R,8S)-11-oxatricyclo[6.2.1.0^2,7]undeca-2(7),3,5-trien-9-yl]formamido}ethyl]boronic acid]
[1]
  Selectivity LMP7 vs Beta5: ++ (100 ≤ Selectivity < 300)
[1]; [3]
  IC50: < 5e-08 M
[2]; [4]
  IC50: 5e-06 to 3e-05 M

## Cc1cccc2c1OC[C@H]2C[C@H](NC(=O)[C@@H]1C[C@H]2CC[C@@H]1O2)B(O)O [compound 15, [(1R)-2-[(3S)-7-methyl-2,3-dihydro-1-benzofuran-3-yl]-1-{[(1S,2R,4R)-7-oxabicyclo[2.2.1]heptan-2-yl]formamido}ethyl]boronic acid]
[1]
  Selectivity LMP7 vs Beta5: +++++ (Selectivity ≥700)
[1]; [3]
  IC50: < 5e-08 M
[2]; [4]
  IC50: 5e-06 to 3e-05 M

## Cc1cccc2c1OC[C@@H]2C[C@H](NC(=O)[C@@H]1C[C@H]2CC[C@@H]1O2)B(O)O [compound 14, [(1R)-2-[(3R)-7-methyl-2,3-dihydro-1-benzofuran-3-yl]-1-{[(1S,2R,4R)-7-oxabicyclo[2.2.1]heptan-2-yl]formamido}ethyl]boronic acid]
[1]; [3]
  IC50: 5e-07 to 5e-06 M
[2]; [4]
  IC50: > 3e-05 M

## Cc1cccc2c(C[C@H](NC(=O)[C@@]34CC[C@@H](O3)c3ccccc34)B(O)O)coc12 [compound 20, [(1R)-2-(7-methyl-1-benzofuran-3-yl)-1-{[(1S,8R)-11-oxatricyclo[6.2.1.0^2,7]undeca-2,4,6-trien-1-yl]formamido}ethyl]boronic acid]
[1]
  Selectivity LMP7 vs Beta5: ++++ (500 ≤ Selectivity < 700)
[1]; [3]
  IC50: < 5e-08 M
[2]; [4]
  IC50: 5e-06 to 3e-05 M

## O=C(N[C@@H](Cc1coc2ccccc12)B(O)O)[C@H]1C[C@@H]2CC[C@H]1O2 [compound 8, [(1R)-2-(1-benzofuran-3-yl)-1-{[(1R,2S,4S)-7-oxabicyclo[2.2.1]heptan-2-yl]formamido}ethyl]boronic acid]
[1]
  Selectivity LMP7 vs Beta5: ++++ (500 ≤ Selectivity < 700)
[1]; [3]
  IC50: < 5e-08 M
[2]; [4]
  IC50: 5e-06 to 3e-05 M

## O=C(N[C@@H](C[C@@H]1COc2ccccc21)B(O)O)[C@]12CC[C@H](O1)c1ccccc12 [compound 16, [(1R)-2-[(3S)-2,3-dihydro-1-benzofuran-3-yl]-1-{[(1R,8S)-11-oxatricyclo[6.2.1.0^2,7]undeca-2(7),3,5-trien-1-yl]formamido}ethyl]boronic acid]
[1]
  Selectivity LMP7 vs Beta5: +++++ (Selectivity ≥700)
[1]; [3]
  IC50: < 5e-08 M
[2]; [4]
  IC50: 5e-06 to 3e-05 M

## O=C(N[C@@H](C[C@@H]1COc2ccccc21)B(O)O)[C@@H]1C[C@H]2CC[C@@H]1O2 [Compound No. 1, [(1R)-2-[(3S)-2,3-dihydro-1-benzofuran-3-yl]-1-{[(1S,2R,4R)-7-oxabicyclo[2.2.1]heptan-2-yl]formamido}ethyl]boronic acid]
[1]
  Selectivity LMP7 vs Beta5: +++++ (Selectivity ≥700)
[1]; [3]
  IC50: < 5e-08 M
[2]; [4]
  IC50: 5e-06 to 3e-05 M

## O=C(N[C@@H](Cc1coc2ccccc12)B(O)O)C1C[C@@H]2O[C@H]1c1ccccc12 (stereo partly drawn) [compound 24, [(1R)-2-(1-benzofuran-3-yl)-1-{[(1S,8R)-11-oxatricyclo[6.2.1.0^2,7]undeca-2(7),3,5-trien-9-yl]formamido}ethyl]boronic acid]
[1]
  Selectivity LMP7 vs Beta5: + (Selectivity <100)
[1]; [3]
  IC50: < 5e-08 M
[2]; [4]
  IC50: 5e-08 to 5e-07 M

## O=C(N[C@@H](Cc1coc2ccccc12)B(O)O)[C@@H]1C[C@H]2CC[C@@H]1O2 [Compound No. 9, [(1R)-2-(1-benzofuran-3-yl)-1-{[(1S,2R,4R)-7-oxabicyclo[2.2.1]heptan-2-yl]formamido}ethyl]boronic acid]
[1]
  Selectivity LMP7 vs Beta5: +++++ (Selectivity ≥700)
[1]; [3]
  IC50: < 5e-08 M
[2]; [4]
  IC50: 5e-07 to 5e-06 M

## O=C(N[C@@H](C[C@@H]1COc2ccccc21)B(O)O)[C@@]12CC[C@@H](O1)c1ccccc12 [compound 18, [(1R)-2-[(3S)-2,3-dihydro-1-benzofuran-3-yl]-1-{[(1S,8R)-11-oxatricyclo[6.2.1.0^2,7]undeca-2(7),3,5-trien-1-yl]formamido}ethyl]boronic acid]
[1]
  Selectivity LMP7 vs Beta5: +++++ (Selectivity ≥700)
[1]; [3]
  IC50: < 5e-08 M
[2]; [4]
  IC50: 5e-06 to 3e-05 M

## CC(C)C[C@H](NC(=O)[C@@H]1C[C@H]2CC[C@@H]1O2)B(O)O [compound 28, [(1R)-3-methyl-1-{[(1S,2R,4R)-7-oxabicyclo[2.2.1]heptan-2-yl]formamido}butyl]boronic acid]
[1]; [3]
  IC50: 5e-07 to 5e-06 M
[2]; [4]
  IC50: > 3e-05 M

## O=C(N[C@@H](Cc1coc2c(Cl)cccc12)B(O)O)[C@H]1C[C@@H]2CC[C@H]1O2 [compound 12, [(1R)-2-(7-chloro-1-benzofuran-3-yl)-1-{[(1R,2S,4S)-7-oxabicyclo[2.2.1]heptan-2-yl]formamido}ethyl]boronic acid]
[1]
  Selectivity LMP7 vs Beta5: +++++ (Selectivity ≥700)
[1]; [3]
  IC50: < 5e-08 M
[2]; [4]
  IC50: 5e-06 to 3e-05 M

## O=C(N[C@@H](CCc1ccccc1)B(O)O)[C@@H]1C[C@H]2CC[C@@H]1O2 [compound 27, [(1R)-1-{[(1S,2R,4R)-7-oxabicyclo[2.2.1]heptan-2-yl]formamido}-3-phenylpropyl]boronic acid]
[1]; [3]
  IC50: 5e-07 to 5e-06 M
[2]; [4]
  IC50: > 3e-05 M
